These results are taken from ChEMBL document CHEMBL5053551, “Structure-Based Design of Dual Partial Peroxisome Proliferator-Activated Receptor γ Agonists/Soluble Epoxide Hydrolase Inhibitors” (J Med Chem, 2021).

As a reminder, the half-life is the time in which the quantity being followed falls by half. What is called IC50 is the concentration that gives 50% inhibition. What is called solubility is how much of the substance goes into solution per volume.

One series deals with HepG2. In words: Cytotoxicity against human HepG2 cells assessed as reduction in ATP level at above 25 to 50 uM after 72 hrs by CellTiter-glo luminescence assay. Type of series: cell-based. The following applies: hepg2, 72 h, dose 25-50 µM.
Series [1] has as its target T1, Peroxisome proliferator-activated receptor delta (Homo sapiens) (UniProt Q03181).
T1 sequence (whole entry): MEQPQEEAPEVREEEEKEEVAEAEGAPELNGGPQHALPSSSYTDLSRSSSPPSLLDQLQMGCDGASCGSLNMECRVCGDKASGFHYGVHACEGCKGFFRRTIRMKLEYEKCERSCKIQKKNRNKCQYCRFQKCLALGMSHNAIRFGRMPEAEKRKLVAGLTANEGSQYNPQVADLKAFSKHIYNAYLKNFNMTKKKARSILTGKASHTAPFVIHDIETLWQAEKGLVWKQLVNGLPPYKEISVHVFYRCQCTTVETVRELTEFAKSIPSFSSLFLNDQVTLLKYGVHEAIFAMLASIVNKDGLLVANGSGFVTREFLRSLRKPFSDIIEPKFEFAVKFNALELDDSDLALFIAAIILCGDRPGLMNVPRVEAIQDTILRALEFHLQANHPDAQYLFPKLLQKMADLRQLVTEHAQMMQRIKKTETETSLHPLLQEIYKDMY
Description: Partial agonist activity at GAL4-tagged human PPARdelta LBD expressed in HEK293T cells at 3 uM incubated for 12 to 14 hrs by dual-Glo luciferase assay. The series is classed as cell-based. The following applies: time 12-14 hrs.

The test system of another series is 3T3-L1. In words: Induction of cell differentiation in mouse 3T3-L1 cells assessed as increase in differentiation cocktail-induced lipid accumulation at 0.3 to 3 uM incubated for 2 days by Oil-Red O staining based assay. The series is classed as functional. The following applies: dose 0.3-3 µM, time 2.0 day.
A short description of series [2]: Stability of compound in BALB/c mouse liver microsomes assessed as half life at 10 uM preincubated for 5 mins in presence of NADPH regenerating system followed by microsomal addition and measured upto 60 mins by HPLC analysis. The series is classed as ADME, Microsome. Particulars: time 65 min. In general terms: Liver microsomes are vesicles of endoplasmic reticulum, rich in cytochrome P450 enzymes.

In series [3] the target is T2, Bifunctional epoxide hydrolase 2 (Mus musculus, UniProt P34914).
T2 sequence (P34914 whole entry): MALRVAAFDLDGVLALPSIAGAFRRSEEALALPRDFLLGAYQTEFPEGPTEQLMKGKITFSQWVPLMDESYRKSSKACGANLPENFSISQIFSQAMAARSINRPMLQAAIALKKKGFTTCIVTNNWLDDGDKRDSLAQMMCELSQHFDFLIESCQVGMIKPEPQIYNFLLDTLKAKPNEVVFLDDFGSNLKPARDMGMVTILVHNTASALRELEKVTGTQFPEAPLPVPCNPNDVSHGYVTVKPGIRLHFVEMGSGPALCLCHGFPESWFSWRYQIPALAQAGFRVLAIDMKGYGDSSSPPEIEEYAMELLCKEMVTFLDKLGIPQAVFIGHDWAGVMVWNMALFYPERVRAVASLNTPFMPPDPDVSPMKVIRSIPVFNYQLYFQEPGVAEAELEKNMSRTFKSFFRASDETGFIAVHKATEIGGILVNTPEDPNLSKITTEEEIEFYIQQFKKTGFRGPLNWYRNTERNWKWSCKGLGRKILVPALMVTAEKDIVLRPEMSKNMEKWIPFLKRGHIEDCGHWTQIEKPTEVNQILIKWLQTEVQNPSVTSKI
In words: Inhibition of N-terminal His-tagged mouse sEH (2 to 554 residues) expressed in Escherichia coli Rosetta2 (DE3) assessed as reduction in 6-methoxy-2-naphthaldehyde formation using PHOME as substrate preincubated for 30 to 45 mins followed by substrate addition and measured after 30 to 45 mins by fluorescence assay.

Series [4] addresses T3, Vitamin D3 receptor (Homo sapiens) (UniProt P11473).
T3 sequence (whole entry): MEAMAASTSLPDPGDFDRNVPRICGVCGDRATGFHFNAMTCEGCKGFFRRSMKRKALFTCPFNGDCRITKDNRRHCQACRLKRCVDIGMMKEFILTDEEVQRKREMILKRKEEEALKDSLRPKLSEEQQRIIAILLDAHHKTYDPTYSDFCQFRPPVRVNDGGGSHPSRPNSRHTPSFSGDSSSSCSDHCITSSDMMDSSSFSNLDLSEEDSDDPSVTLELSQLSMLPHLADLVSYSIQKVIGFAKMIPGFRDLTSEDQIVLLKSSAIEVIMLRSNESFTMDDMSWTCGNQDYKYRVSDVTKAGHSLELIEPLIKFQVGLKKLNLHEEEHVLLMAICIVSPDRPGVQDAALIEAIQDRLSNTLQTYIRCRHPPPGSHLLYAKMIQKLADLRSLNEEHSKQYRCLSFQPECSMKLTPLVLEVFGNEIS
In words: Partial agonist activity at GAL4-tagged human VDR LBD expressed in HEK293T cells at 3 uM incubated for 12 to 14 hrs by dual-Glo luciferase assay. Type of series: cell-based. The following applies: filed as partial agonist, time 12-14 hrs.

Series [5] can be described thus: Solubility of compound in DPBS buffer. The series is classed as physicochemical.
Series [6] is described as follows: Stability of compound in Sprague-Dawley rat liver microsomes assessed as half life at 10 uM preincubated for 5 mins in presence of NADPH regenerating system followed by microsomal addition and measured upto 60 mins by HPLC analysis. Type of series: ADME, Microsome. The following applies: time 65 min.
In series [7] the target is T4, Peroxisome proliferator-activated receptor alpha (Homo sapiens) (UniProt Q07869).
T4 sequence (whole entry): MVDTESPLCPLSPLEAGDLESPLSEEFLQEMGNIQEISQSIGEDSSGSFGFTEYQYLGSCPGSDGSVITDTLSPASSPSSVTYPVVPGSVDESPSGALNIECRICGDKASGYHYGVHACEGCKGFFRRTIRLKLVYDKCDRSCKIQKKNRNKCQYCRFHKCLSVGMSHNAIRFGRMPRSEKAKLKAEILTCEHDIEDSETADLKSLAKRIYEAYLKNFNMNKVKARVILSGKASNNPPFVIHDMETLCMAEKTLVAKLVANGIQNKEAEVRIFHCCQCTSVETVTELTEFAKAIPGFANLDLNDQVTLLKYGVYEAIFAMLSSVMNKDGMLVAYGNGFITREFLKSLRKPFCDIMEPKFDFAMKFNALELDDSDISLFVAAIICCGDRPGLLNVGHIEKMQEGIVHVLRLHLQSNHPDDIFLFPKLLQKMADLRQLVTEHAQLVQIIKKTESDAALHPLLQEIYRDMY
In words: Partial agonist activity at GAL4-tagged human PPARalpha LBD expressed in HEK293T cells at 3 uM incubated for 12 to 14 hrs by dual-Glo luciferase assay. Type of series: cell-based. The following applies: time 12-14 hrs.

Each structure is given as a SMILES string. Converted amounts (≈) assume the structure as drawn. The source made the active and inactive calls. No cut-off for these calls is given here.

Turning to `CS(=O)(=O)Nc1ccc(CNC(=O)c2ccc3c(ccn3Cc3cccc(F)c3)c2)c(C(F)(F)F)c1`, the Activity result in the series on HepG2 is recorded as “Toxic”. Also, the result in series [1] and in series [7] was inactive. Besides, the outcome (in the series on 3T3-L1; in series [4]) was Active. In addition, the half-life at 10 µM came out at 61 min in series [2] and 52 min in [6]. The IC50 in [3] was 46 nM. In series [5], this compound yielded a solubility of 3 µM (≈ 1.56 µg/mL).

Consider `O=C(NCc1ccc(NS(=O)(=O)C2CC2)cc1C(F)(F)F)c1ccc2c(ccn2Cc2cccc(F)c2)c1`, for which the Activity result in the series with HepG2 was “Toxic”. Moreover, the outcome in series [1] and in series [7] was inactive. Besides, the outcome (in the series on 3T3-L1; in series [4]) was Active. The half-life at 10 µM in series [2] was determined as 59 min; in series [6], 57 min. Besides, the IC50 in series [3] turned out to be 202 nM. Besides, the solubility in series [5] came to 3 µM (≈ 1.64 µg/mL).
